Results published in patent EP4781984A1 (Beyang Therapeutics Co., Ltd., priority 2023, dated 2025).
pIC50: −log10 of the molar value. ≈ marks a conversion by molar mass, not a printed value.

Legend:
[1] = tested on: melanin; assay: Compound binding to melanin; type: in vitro ADME; conditions: cuttlefish (Sepia officinalis), melanin suspension (1 mg/mL), percentage of free drug (not bound to melanin), 2 µM compound, melanin 1 mg/mL in PBS pH 7.4, 37°C
Text: Detection of Compound Binding to Melanin
Pigmented ocular tissues contain melanin within intracellular melanosomes. Drugs bind to melanin to varying degrees, from no binding to extensive binding. Therefore, melanin binding is an important characteristic affecting ocular drug delivery and biodistribution. The ability of compounds to bind to melanin must be considered in ocular drug development.
Melanin derived from cuttlefish (Sepia officinalis) melanin was purchased from Sigma Aldrich (St Louis, MO).
First, prepare a 1 mg/mL melanin suspension in PBS (pH 7.4). As a matrix washing step, suspended particles were centrifuged at 3000 rpm for 5 minutes. The resulting pellet was resuspended in fresh PBS buffer, heated to 37°C with continuous shaking, and incubated for 1 hour. Accurately pipette 2 microliters of test compound stock solution (0.1 mM) into 98 microliters of melanin suspension (1 mg/mL), resulting in a final incubation concentration of 2 µM. Similarly, accurately pipette 2 microliters of stock solution (0.1 mM) into 98 microliters of PBS buffer (containing 0.1% BSA) as a blank control sample. Samples were incubated at 37°C for 2 hours on a shaker (80-90 rpm). Then centrifuged at room temperature. 50 microliters of supernatant was aspirated and added to 50 microliters of precipitation agent (containing internal standard). All samples above were subjected to protein precipitation, centrifuged, the supernatant was taken, diluted with water (if necessary), and then injected for analysis. Simultaneously, high-binding compounds Sunitinib and chloroquine, and the low-binding compound celecoxib were measured as positive controls. An LC-MS/MS analytical method for determining compound concentration was established. The ratio of analyte/internal standard peak areas (Aanalyte/AIS) measured in the samples, calibrated by the dilution factor, was used as the surrogate concentration for data processing. The binding rate of the compound to melanin (Fb) is calculated by the formula: Fb = 100−(Ctest)/(Ccontrol) × 100% [formula]
Ctest is the drug concentration of the compound in the melanin incubation sample or the peak area ratio of the test compound to the internal standard. Ccontrol is the drug concentration of the compound in the blank control sample or the peak area ratio of the test compound to the internal standard. Percentage of free drug (Fu%) = 100 - Fb The binding rates of the compounds of the present invention to melanin are shown in the table below: Table 11. Binding Rate of Compounds to Melanin

[2] = Thermodynamic solubility test; type: physicochemical; conditions: buffer solution, aqueous buffer, thermodynamic from solid; thermodynamic solubility, room temperature, 8 hours shaking; buffers pH 2.0, 6.5, 7.4 used, pH of the tabulated value not given
Protocol: Solubility Test of Compounds
Table 9. Reagents and Instruments
After sonication for 10 minutes, they were fixed on a shaker and shaken at room temperature for 8 hours. After shaking, they were sonicated for 10 minutes and centrifuged at 13000 rpm for 15 minutes. 0.1 mL of supernatant was aspirated into a new tube, rinsed with 5 mL of buffer by shaking, and the liquid was discarded. 0.5 mL of supernatant was transferred again to a new tube, centrifuged at 13000 rpm for 15 minutes, and the supernatant was taken (diluted with water if necessary) for LC-MS injection analysis. Sample concentrations were quantified using a 3-5 point calibration curve.

[3] = target: T1, EGFR (Homo sapiens, UniProt P00533); assay: Kinase inhibitory activity, Mobility Shift Assay (EGFR); type: biochemical
T1 construct: purchased Carna 08-115
T1 sequence (P00533 25-1210): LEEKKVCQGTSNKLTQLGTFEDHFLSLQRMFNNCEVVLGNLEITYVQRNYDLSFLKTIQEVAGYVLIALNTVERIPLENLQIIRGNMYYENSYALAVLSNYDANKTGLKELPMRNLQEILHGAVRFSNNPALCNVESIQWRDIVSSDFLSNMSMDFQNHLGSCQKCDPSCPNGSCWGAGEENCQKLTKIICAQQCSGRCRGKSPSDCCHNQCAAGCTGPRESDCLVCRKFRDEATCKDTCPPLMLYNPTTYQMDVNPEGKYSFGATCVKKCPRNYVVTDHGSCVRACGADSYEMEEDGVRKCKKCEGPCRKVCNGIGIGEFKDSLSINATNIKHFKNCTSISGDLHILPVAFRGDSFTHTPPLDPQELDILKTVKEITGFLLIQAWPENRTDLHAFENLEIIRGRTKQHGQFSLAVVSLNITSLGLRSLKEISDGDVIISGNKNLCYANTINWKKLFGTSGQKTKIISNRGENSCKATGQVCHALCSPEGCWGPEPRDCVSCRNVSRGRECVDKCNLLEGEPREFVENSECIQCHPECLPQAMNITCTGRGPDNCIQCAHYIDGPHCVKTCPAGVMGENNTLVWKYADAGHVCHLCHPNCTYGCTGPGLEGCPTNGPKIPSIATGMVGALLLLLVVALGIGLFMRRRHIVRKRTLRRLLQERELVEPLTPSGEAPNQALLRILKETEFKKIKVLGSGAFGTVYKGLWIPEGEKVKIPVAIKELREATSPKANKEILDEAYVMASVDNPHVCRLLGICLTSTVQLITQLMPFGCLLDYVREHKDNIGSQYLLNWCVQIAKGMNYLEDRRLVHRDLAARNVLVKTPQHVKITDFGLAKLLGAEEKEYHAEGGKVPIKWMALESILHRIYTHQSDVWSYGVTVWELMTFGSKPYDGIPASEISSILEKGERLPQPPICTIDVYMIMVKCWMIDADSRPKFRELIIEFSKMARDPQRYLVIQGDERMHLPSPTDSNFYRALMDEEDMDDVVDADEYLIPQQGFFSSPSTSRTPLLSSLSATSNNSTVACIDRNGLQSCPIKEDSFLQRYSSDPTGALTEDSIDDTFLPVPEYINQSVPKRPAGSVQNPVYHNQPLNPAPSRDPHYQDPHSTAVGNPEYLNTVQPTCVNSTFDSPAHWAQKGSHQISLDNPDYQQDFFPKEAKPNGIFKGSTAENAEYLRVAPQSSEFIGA
Protocol: Assay for Inhibitory Activity of Compounds Against VEGFR and EGFR Kinases
This assay directly monitors the inhibitory activity of compounds on kinase phosphorylation by measuring non-phosphorylated and phosphorylated substrates in the kinase reaction using Mobility Shift Assays/IMAP™ analysis. Table 2. Reagents and Instruments
Kinase and DTT were added to 1X kinase buffer to form a 2.5X kinase solution; 10 µL of the 2.5X kinase solution was transferred to a 384-well reaction plate, and 1X kinase buffer was added to the negative control wells. The plate was incubated at room temperature for 10 minutes; FAM-labeled peptide, MgCl2, ATP, and other reagents were added to 1X kinase buffer to form a 2.5X substrate solution; 10 µL of the above 2.5X substrate solution was transferred to the 384-well reaction plate; the plate was incubated at 28°C for varying times, and then 25 µL of stop solution was added to the 384-well reaction plate to terminate the reaction. Conversion rate data were read on a CaliperEZ Reader II. […] IC50 values were fitted using XLFit excel add-in version 5.4.0.8. Y = Bottom + (Top−Bottom)/(1 + […]) [formula]
X is the log value of compound concentration, Y is the inhibition rate (% inhibition).

SMILES	fraction unbound at 2 h, 2 µM [1]	solubility at 8 h [2] [mg/mL]	pIC50 [3]
CCN(CC)Cc1ccc(/C=C/c2n[nH]c3cc(Sc4ccc(F)cc4C(=O)NC)ccc23)nc1 [Compound I-93]	0.01 to 0.05		
CNC(=O)c1ccccc1Sc1ccc2c(/C=C/c3ccn(CCCN4CCCC4)n3)n[nH]c2c1 [Compound I-11]	0.01 to 0.05	0.866 (≈ 1780 µM)	
CCN(CC)Cc1ccc(/C=C/c2n[nH]c3cc(Sc4ccccc4C(=O)NC4CC4)ccc23)nc1 [Compound I-78]	0.01 to 0.05	0.0276 (≈ 55.5 µM)	
CCN(CC)Cc1ccc(/C=C/c2n[nH]c3cc(Sc4cc(F)ccc4C(=O)NC4CC4)ccc23)nc1 [Compound I-83, N-cyclopropyl-4-fluoro-2-({3-[(E)-2-{5-[(diethylamino)methyl]pyridin-2-yl}ethenyl]-1H-indazol-6-yl}thio)benzamide]	> 0.05	0.0796 (≈ 154 µM)	
CCNC(=O)c1ccccc1Sc1ccc2c(/C=C/c3ccc(CN4CCCC4)cn3)n[nH]c2c1 [Compound I-73, N-ethyl-2-({3-[(E)-2-{5-[(pyrrolidin-1-yl)methyl]pyridin-2-yl}ethenyl]-1H-indazol-6-yl}thio)benzamide]	0.01 to 0.05		
O=C(NC1CC1)c1ccccc1Sc1ccc2c(/C=C/c3ccc(CN4CCCC4)cn3)n[nH]c2c1 [Compound I-41]	> 0.05		
O=C(NC1CC1)c1cccc(F)c1Sc1ccc2c(/C=C/c3cccc(CCN4CCCC4)n3)n[nH]c2c1 [Compound I-128]			< 4.22
CNC(=O)c1cccc(F)c1Sc1ccc2c(/C=C/c3cnn(CCCN4CCCC4)c3)n[nH]c2c1 [Compound I-76]	> 0.05	1.77 (≈ 3520 µM)	
CNC(=O)c1ccccc1Sc1ccc2c(/C=C/c3cccc(OCCN4CCCC4)n3)n[nH]c2c1 [Compound I-17]	0.01 to 0.05	0.278 (≈ 556 µM)	
O=C(NC1CC1)c1ccccc1Sc1ccc2c(/C=C/c3cnn(CCCN4CCCC4)c3)n[nH]c2c1 [Compound I-43]	0.01 to 0.05	0.0716 (≈ 140 µM)	
O=C(NC1CC1)c1ccccc1Sc1ccc2c(/C=C/c3ccc(OCCN4CCCC4)cn3)n[nH]c2c1 [Compound I-8, N-cyclopropyl-2-((3-((E)-2-(5-(2-(pyrrolidin-1-yl)ethoxy)pyridin-2-yl)ethenyl)-1H-indazol-6-yl)thio)benzamide]	0.01 to 0.05	1.87 (≈ 3560 µM)	
CCN(CC)Cc1ccc(/C=C/c2n[nH]c3cc(Sc4ccccc4C(=O)NCC(F)F)ccc23)nc1 [Compound I-99]	> 0.05	0.341 (≈ 654 µM)	
CCN(CC)CCOc1ccc(/C=C/c2n[nH]c3cc(Sc4ccccc4C(=O)NC4CC4)ccc23)nc1 [Compound I-52]	> 0.05		
CCN(CC)Cc1ccc(/C=C/c2n[nH]c3cc(Sc4ccccc4C(=O)NC)ccc23)nc1 [Compound I-90]	0.01 to 0.05	0.0319 (≈ 67.6 µM)	
CNC(=O)c1ccccc1Sc1ccc2c(/C=C/c3ccnc(OCCN4CCCC4)c3)n[nH]c2c1 [Compound I-18]	0.01 to 0.05		
CNC(=O)c1ccccc1Sc1ccc2c(/C=C/c3cc(OCCN4CCCC4)ccn3)n[nH]c2c1 [Compound I-20]	0.01 to 0.05	0.128 (≈ 256 µM)	
CNC(=O)c1cccc(F)c1Sc1ccc2c(/C=C/c3ccc(OCCN4CCCC4)cn3)n[nH]c2c1 [Compound I-33, 3-fluoro-N-methyl-2-({3-[(E)-2-{5-[2-(pyrrolidin-1-yl)ethoxy]pyridin-2-yl}ethenyl]-1H-indazol-6-yl}sulfanyl)benzamide]	> 0.05	0.0577 (≈ 111 µM)	

SMILES	fraction unbound at 2 h, 2 µM [1]	solubility at 8 h [2] [mg/mL]	pIC50 [3]
CNC(=O)c1ccc(F)cc1Sc1ccc2c(/C=C/c3ccc(CN4CCCC4)cn3)n[nH]c2c1 [Compound I-94]	0.01 to 0.05	0.0318 (≈ 65.2 µM)	
CN(C)CCOc1ccc(/C=C/c2n[nH]c3cc(Sc4ccccc4C(=O)NC4CC4)ccc23)nc1 [Compound I-51, N-cyclopropyl-2-({3-[(E)-2-{5-[2-(dimethylamino)ethoxy]pyridin-2-yl}ethenyl]-1H-indazol-6-yl}sulfanyl)benzamide]	0.01 to 0.05		
CCN(CC)Cc1ccc(/C=C/c2n[nH]c3cc(Sc4ccccc4C(=O)NCC(F)(F)F)ccc23)nc1 [Compound I-100]	> 0.05	0.209 (≈ 387 µM)	
CNC(=O)c1ccccc1Sc1ccc2c(/C=C/c3ccc(CCN4CCCC4)cn3)n[nH]c2c1 [Compound I-107]	0.01 to 0.05		
CNC(=O)c1ccccc1Sc1ccc2c(/C=C/c3cccc(OCCN4CCCC4)c3)n[nH]c2c1 [Compound I-15]	0.01 to 0.05	0.0788 (≈ 158 µM)	
O=C(NC1CC1)c1ccccc1Sc1ccc2c(/C=C/c3ccc(OCCN4CCCCC4)cn3)n[nH]c2c1 [Compound I-53]	> 0.05		
CCN(CC)Cc1ccc(/C=C/c2n[nH]c3cc(Sc4ccccc4C(=O)NCCF)ccc23)nc1 [Compound I-98, 2-({3-[(E)-2-{5-[(diethylamino)methyl]pyridin-2-yl}ethenyl]-1H-indazol-6-yl}sulfanyl)-N-(2-fluoroethyl)benzamide]	> 0.05	0.456 (≈ 905 µM)	
CCN(CC)Cc1ccc(/C=C/c2n[nH]c3cc(Sc4c(F)cccc4C(=O)NC)ccc23)nc1 [Compound I-91]	0.01 to 0.05	1.65 (≈ 3370 µM)	
O=C(NC1CC1)c1ccccc1Sc1ccc2c(/C=C/c3cc(CN4CCCC4)ccn3)n[nH]c2c1 [Compound I-115]	0.01 to 0.05		
CNC(=O)c1ccccc1Sc1ccc2c(/C=C/c3cnn(CCN4CCCC4)c3)n[nH]c2c1 [Compound I-9]	0.01 to 0.05	0.363 (≈ 768 µM)	
CNC(=O)c1cc(F)ccc1Sc1ccc2c(/C=C/c3ccc(OCCN4CCCC4)cn3)n[nH]c2c1 [Compound I-34, 5-fluoro-N-methyl-2-({3-[(E)-2-{5-[2-(pyrrolidin-1-yl)ethoxy]pyridin-2-yl}ethenyl]-1H-indazol-6-yl}sulfanyl)benzamide]	> 0.05	0.0193 (≈ 37.3 µM)	
O=C(NC1CC1)c1ccccc1Sc1ccc2c(/C=C/c3cnn(CCN4CCCC4)c3)n[nH]c2c1 [Compound I-61]	0.01 to 0.05		
CNC(=O)c1ccc(F)cc1Sc1ccc2c(/C=C/c3ccc(OCCN4CCCC4)cn3)n[nH]c2c1 [Compound I-35, 4-fluoro-N-methyl-2-({3-[(E)-2-{5-[2-(pyrrolidin-1-yl)ethoxy]pyridin-2-yl}ethenyl]-1H-indazol-6-yl}sulfanyl)benzamide]	0.01 to 0.05	0.0266 (≈ 51.4 µM)	
CNC(=O)c1ccccc1Sc1ccc2c(C#Cc3ccc(OCCN4CCCC4)cn3)n[nH]c2c1 [Compound I-16]	≤ 0.01	0.0272 (≈ 54.7 µM)	
CNC(=O)c1ccccc1Sc1cnc2c(/C=C/c3ccccn3)n[nH]c2c1 [Compound I-21, N-methyl-2-({3-[(E)-2-(pyridin-2-yl)ethenyl]-1H-pyrazolo[4,3-b]pyridin-6-yl}sulfanyl)benzamide]	0.01 to 0.05	0.0009 (≈ 2.32 µM)	
O=C(NC1CC1)c1cc(F)ccc1Sc1ccc2c(/C=C/c3ccc(CN4CCCC4)cn3)n[nH]c2c1 [Compound I-80]	0.01 to 0.05	0.199 (≈ 387 µM)	
